According to patent US10492518B2, “Blood lipid-lowering composition, method for preparing the same and use thereof” (INFINITUS (CHINA) COMPANY LTD., priority 2018, dated 2019):

System: mixed hyperlipidemia model in SD rat
Assay: Test of the blood lipid-lowering efficacy: serum TC, TG, HDL-C, LDL-C and apo-A1 after 30 days oral administration
Type: in vivo
Details: positive control, atorvastatin calcium 0.83 mg/Kg oral, high fat diet SD rats
Description: Experiment object: compositions of examples 1 to 4, single component group (500 mg of echium seed oil), and two positive control groups: fish oil group (180 mg of EPA and 120 mg of DHA in each 1000 mg oil fish, purchased from Amway), and atorvastatin calcium group (each tablet was 20 mg containing 10 mg of active ingredient atorvastatin calcium, purchased from Pfizer Pharmaceutical Co., Ltd.).
Reference was made to the test method of adjunctive blood lipid-lowering function in the Technical specification for health care food inspection and evaluation. The SPF grade male SD rats were chosen as the experimental animals. After the adaptation period, an animal model of mixed hyperlipidemia was established, and the rats were randomly divided into groups according to the TC level.
There were three dosage groups, two positive control groups, one blank control group and one model control group. In low-dosage group, the dosage of the test sample was equal to 5 times ([…]) of the recommended amount for human; for the other two dosage groups, the dosages were respectively equal to 10 times (333.33 mg/kg) and 25 times (833.33 mg/kg) of the recommended amount for human. The dosage of the positive control group was equal to 5 times of the recommended amount for human (fish oil: 150 mg/Kg; atorvastatin calcium 0.83 mg/Kg). The blank control group and the model control group were administered with distilled water of the same volume by intragastric gavage. Each of the groups was weighed regularly. 30 days after the administration, blood samples were collected from the rats without fasting, and the serums were separated. TC (total cholesterol), TG (total triglyceride), (high-density lipoprotein cholesterol) and apo-A1 (apolipoprotein A1) were tested. The methods were illustrated in details hereinafter.
Adaptation period: in a barrier system the rats were fed for regular feed and observed for 5 to 7 days.
The rats were randomly divided into 22 groups according to the weight, 6 rats per group. One group of rats was fed with regular feed as the blank control group. The other 21 groups were fed with high fat diet as the model control group. All rats were weighed once a week.
20 days after the model control groups were fed with high fat diet, blood samples (1 to 1.5 mL of blood from the tail vein) were collected from the rats of the blank control group and the model control group without fasting. After the blood collection, the serum were quickly separated and transferred to a new centrifuge tube, and then cryopreserved at −20° C. for test. ELISA test kits for cholesterol, triglyceride, HDL-cholesterol and LDL-cholesterol were used to test the levels of TC, TG, LDL-C and HDL-C in the rat serum. […]

CC(C)c1c(C(=O)Nc2ccccc2)c(-c2ccccc2)c(-c2ccc(F)cc2)n1CC[C@@H](O)C[C@@H](O)CC(=O)[O-].CC(C)c1c(C(=O)Nc2ccccc2)c(-c2ccccc2)c(-c2ccc(F)cc2)n1CC[C@@H](O)C[C@@H](O)CC(=O)[O-].[Ca+2] [Atorvastatin Calcium, atorvastatin calcium]
Serum HDL-C, Mean Value ± Standard Deviation: 919.74 ± 150.63 µmol/L
Serum LDL-C, Mean Value ± Standard Deviation: 853.24 ± 236.19 µmol/L
Serum total cholesterol (TC), Mean Value ± Standard Deviation: 1117.14 ± 171.07 µmol/L
Serum triglyceride (TG), Mean Value ± Standard Deviation: 189.71 ± 45.83 µmol/L
